According to patent US8314112B2 (Novartis AG, priority 2008, dated 2012):

Target: T1, human ALK5 (kinase domain, ALK5 T204D) (Homo sapiens, UniProt P36897, T204D)
T1 construct: The kinase domain of human ALK5 (amino acids 200-503); made in house; host or cells: insect cells (baculovirus)
T1 sequence (P36897 200-503 T204D): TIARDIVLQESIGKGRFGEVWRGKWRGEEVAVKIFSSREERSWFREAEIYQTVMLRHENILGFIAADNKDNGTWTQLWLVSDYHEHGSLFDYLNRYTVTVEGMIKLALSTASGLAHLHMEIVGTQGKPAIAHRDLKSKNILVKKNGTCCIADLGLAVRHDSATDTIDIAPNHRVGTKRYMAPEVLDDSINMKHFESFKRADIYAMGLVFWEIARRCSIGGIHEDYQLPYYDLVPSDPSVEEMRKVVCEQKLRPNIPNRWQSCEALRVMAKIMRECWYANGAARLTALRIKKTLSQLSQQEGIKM
Experiment: ALK5 kinase assay ([33P] phosphate incorporation into casein)
Type: biochemical
Settings: casein substrate, 1 μM unlabelled ATP
Outline: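 His-tagged human ALK5 T204D kinase domain (aa 200-503, constitutively active, baculovirus/insect-cell expressed), 50 ng/well, preincubated 10 min with compound and dephosphorylated casein (200 μg/well) in Tris pH 7.4/MgCl2/MnCl2. Reaction started with 1 μM ATP plus [33P]ATP, 50 min at room temperature, EDTA-stopped; casein-bound 33P counted by scintillation after filter capture.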

| IC50 [nM] | Compound |
| --- | --- |
| 4.6 | Cc1cccc(-c2cc(-c3cncc(-c4ccc(CN5CC[C@@H](N(C)C)C5)cc4)c3)c3cc[nH]c3n2)n1 [Example 108, Dimethyl-[(R)-1-(4-{5-[6-(6-methyl-pyridin-2-yl)-1H-pyrrolo[2,3-b]pyridin-4-yl]-pyridin-3-yl}-benzyl)-pyrrolidin-3-yl]-amine] |
| 812 | Cc1cccc(-c2cc(-c3cncc(CO)c3)c3cc[nH]c3n2)n1 [Example 109, {5-[6-(6-Methyl-pyridin-2-yl)-1H-pyrrolo[2,3-b]pyridin-4-yl]-pyridin-3-yl}-methanol] |
| 20 | Cc1cccc(-c2cc(-c3cncc(-c4ccc(CN5CC[C@H](N(C)C)C5)cc4)c3)c3cc[nH]c3n2)n1 [Example 110, Dimethyl-[(S)-1-(4-{5-[6-(6-methyl-pyridin-2-yl)-1H-pyrrolo[2,3-b]pyridin-4-yl]-pyridin-3-yl}-benzyl)-pyrrolidin-3-yl]-amine] |
| 7 | Cc1cccc(-c2cc(-c3cncc(-c4ccc(C(C)N)cc4)c3)c3cc[nH]c3n2)n1 (stereo not shown) [Example 112, 1-(4-{5-[6-(6-Methyl-pyridin-2-yl)-1H-pyrrolo[2,3-b]pyridin-4-yl]-pyridin-3-yl}-phenyl)-ethylamine] |
| 27 | Cc1cccc(-c2cc(-c3cncc(-c4cccc(C(C)(C)N)c4)c3)c3cc[nH]c3n2)n1 [Example 113, 1-Methyl-1-(3-{5-[6-(6-methyl-pyridin-2-yl)-1H-pyrrolo[2,3-b]pyridin-4-yl]-pyridin-3-yl}-phenyl)-ethylamine] |
| 4.6 | Cc1cccc(-c2cc(-c3cncc(-c4ccc(C(C)(C)N)cc4)c3)c3cc[nH]c3n2)n1 [Example 114, 1-Methyl-1-(4-{5-[6-(6-methyl-pyridin-2-yl)-1H-pyrrolo[2,3-b]pyridin-4-yl]-pyridin-3-yl}-phenyl)-ethylamine] |
| 1150 | Cc1cccc(-c2nc(-c3cncc(-c4ccc5c(c4)CCNC5)c3)c3cc[nH]c3n2)n1 [Example 115, 6-{5-[2-(6-Methyl-pyridin-2-yl)-7H-pyrrolo[2,3-d]pyrimidin-4-yl]-pyridin-3-yl}-1,2,3,4-tetrahydro-isoquinoline] |
| 15 | Cc1cccc(-c2nc(-c3cncc(-c4cnn(C)c4)c3)c3cc[nH]c3n2)n1 [Example 117, 4-[5-(1-Methyl-1H-pyrazol-4-yl)-pyridin-3-yl]-2-(6-methyl-pyridin-2-yl)-7H-pyrrolo[2,3-d]pyrimidine] |
| 3.9 | Cc1cccc(-c2nc(-c3cncc(-c4ccc5c(c4)CNCC5)c3)c3cc[nH]c3n2)n1 [Example 118, 7-{5-[2-(6-Methyl-pyridin-2-yl)-7H-pyrrolo[2,3-d]pyrimidin-4-yl]-pyridin-3-yl}-1,2,3,4-tetrahydro-isoquinoline] |
| 292 | C#Cc1cncc(-c2nc(-c3cccc(C)n3)nc3[nH]ccc23)c1 [Example 119, 4-(5-Ethynyl-pyridin-3-yl)-2-(6-methyl-pyridin-2-yl)-7H-pyrrolo[2,3-d]pyrimidine] |
| 3.6 | Cc1cccc(-c2cc(-c3cncc(-c4cccc(C5CCCN5)c4)c3)c3cc[nH]c3n2)n1 (stereo not shown) [Example 120, 6-(6-Methyl-pyridin-2-yl)-4-[5-(3-pyrrolidin-2-yl-phenyl)-pyridin-3-yl]-1H-pyrrolo[2,3-b]pyridine] |
| 65 | CC(=O)N1CC=C(c2cncc(-c3cc(-c4cccc(C)n4)nc4[nH]ccc34)c2)CC1 [Example 121, 1-{5-[6-(6-Methyl-pyridin-2-yl)-1H-pyrrolo[2,3-b]pyridin-4-yl]-3′,6′-dihydro-2′H-[3,4′]bipyridinyl-1′-yl}-ethanone] |
| 45 | Cc1cccc(-c2nc(-c3cncc(C#CCN4CCN(C)CC4)c3)c3cc[nH]c3n2)n1 [Example 122, 4-{5-[3-(4-methyl-piperazin-1-yl)-prop-1-ynyl]-pyridin-3-yl}-2-(6-methyl-pyridin-2-yl)-7H-pyrrolo[2,3-d]pyrimidine] |
| 4.4 | Cc1cccc(-c2cc(-c3cncc(-c4cnn(C)c4)c3)c3cc[nH]c3n2)n1 [Example 123, 4-[5-(1-Methyl-1H-pyrazol-4-yl)-pyridin-3-yl]-6-(6-methyl-pyridin-2-yl)-1H-pyrrolo[2,3-b]pyridine] |
| 11 | Cc1cccc(-c2nc(-c3cncc(-c4ccc(CN(C)C)cn4)c3)c3cc[nH]c3n2)n1 [Example 124, Dimethyl-{5′-[2-(6-methyl-pyridin-2-yl)-7H-pyrrolo[2,3-d]pyrimidin-4-yl]-[2,3′]bipyridinyl-5-ylmethyl}-amine] |
| 8 | Cc1cccc(-c2cc(-c3cncc(-c4ccc(CN(C)C)cn4)c3)c3cc[nH]c3n2)n1 [Example 125, Dimethyl-{5′-[6-(6-methyl-pyridin-2-yl)-1H-pyrrolo[2,3-b]pyridin-4-yl]-[2,3′]-5-ylmethyl}-amine] |
| 229 | Cc1cccc(-c2nc(-c3cncc4c3CCCO4)c3cc[nH]c3n2)n1 [Example 126, 5-[2-(6-Methyl-pyridin-2-yl)-7H-pyrrolo[2,3-d]pyrimidin-4-yl]-3,4-dihydro-2H-pyrano[2,3-c]pyridine] |
| 17 | Cc1cccc(-c2cc(-c3cncc(-c4ccc([C@H](C)N)cc4)c3)c3cc[nH]c3n2)n1 [Example 127, (S)-1-(4-{5-[6-(6-Methyl-pyridin-2-yl)-1H-pyrrolo[2,3-b]pyridin-4-yl]-pyridin-3-yl}-phenyl)-ethylamine] |
| 13 | Cc1cccc(-c2cc(-c3cncc(-c4ccc([C@@H](C)N)cc4)c3)c3cc[nH]c3n2)n1 [Example 128, (R)-1-(4-{5-[6-(6-Methyl-pyridin-2-yl)-1H-pyrrolo[2,3-b]pyridin-4-yl]-pyridin-3-yl}-phenyl)-ethylamine] |
| 16 | Cc1cccc(-c2cc(-c3cncc(C#CCN4CCN(C)CC4)c3)c3cc[nH]c3n2)n1 [Example 129, 4-{5-[3-(4-Methyl-piperazin-1-yl)-prop-1-ynyl]-pyridin-3-yl}-6-(6-methyl-pyridin-2-yl)-1H-pyrrolo[2,3-b]pyridine] |
| 11 | Cc1cccc(-c2cc(-c3cncc(-c4cccc(CNCC(=O)O)c4)c3)c3cc[nH]c3n2)n1 [Example 130, (3-{5-[6-(6-Methyl-pyridin-2-yl)-1H-pyrrolo[2,3-b]pyridin-4-yl]-pyridin-3-yl}-benzylamino)-acetic acid] |
| 10 | COC(=O)CNCc1cccc(-c2cncc(-c3cc(-c4cccc(C)n4)nc4[nH]ccc34)c2)c1 [Example 131, (3-{5-[6-(6-Methyl-pyridin-2-yl)-1H-pyrrolo[2,3-b]pyridin-4-yl]-pyridin-3-yl}-benzylamino)-acetic acid methyl ester] |
| 5.3 | Cc1cccc(-c2cc(-c3cncc(-c4cccc(CNCCO)c4)c3)c3cc[nH]c3n2)n1 [Example 132, 2-(3-{5-[6-(6-Methyl-pyridin-2-yl)-1H-pyrrolo[2,3-b]pyridin-4-yl]-pyridin-3-yl}-benzylamino)-ethanol] |

| Compound | IC50 [nM] |
| --- | --- |
| Cc1cccc(-c2cc(-c3cncc(C4=CCNCC4)c3)c3cc[nH]c3n2)n1 [Example 111, 5-[6-(6-Methyl-pyridin-2-yl)-1H-pyrrolo[2,3-b]pyridin-4-yl]-1′,2′,3′,6′-tetrahydro-[3,4′]bipyridinyl] | 42 |
| Cc1cccc(-c2nc(-c3cncc(C4=CCN(C)CC4)c3)c3cc[nH]c3n2)n1 [Example 116, 1′-Methyl-5-[2-(6-methyl-pyridin-2-yl)-7H-pyrrolo[2,3-d]pyrimidin-4-yl]-1′,2′,3′,6′-tetrahydro-[3,4′]bipyridinyl] | 532 |
